Measurements: publication PMC6773697, “Antileukemic activity of novel adenosine derivatives” (Scientific Reports, 2019)

Columns and labels:
MOLT-4 cells = experiment: XTT cytotoxicity assay, MOLT-4; format: cell-based, human; conditions: for IC50: Homo sapiens, MOLT-4, XTT, 48 h incubation, none in the picture
Protocol: (§1) The cytotoxic activity test with XTT (sodium 3′-[1-(phenylaminocarbonyl)- 3,4-tetrazolium]-bis (4-methoxy-6-nitro) benzene sulfonic acid hydrate) is a colorimetric method for determining the parameters associated with cell viability. The cytotoxicity in HL-60, THP-1, MOLT-4, and HMEC-1 cells was measured by the XTT assay. XTT is reduced to formazan by the mitochondrial respiratory chain oxidoreductase, which is active only in living cells. The formed crystals of formazan are dissolved directly in the medium. The amount of product is proportional to the number of live cells.
(§2) The IC50 parameter was determined by dividing the mean absorbance values of the drug-treated samples by those of control cells and defined as the drug concentration causing a 50% reduction of cell viability relative to the control. It was calculated using the “Ed50v10(1)” computer application. Cells were plated in 96-well plates at a density of 15 × 10^3 cells in 100 μL culture medium. Drugs were then added at a concentration range of 10 nM–10,000 nM to obtain a final volume of the mixture of 150 μL. Some cells were preincubated with an ATR kinase inhibitor (VE-821) for 1 h at 37 °C before adding the tested compounds. In this case drugs were added at a concentration range of 10 nM–300 nM. For the XTT assay, after 48 h of incubation, the plates were centrifuged at 1,500 rpm for 10 min at 4 °C, the culture medium was removed, and the cells were suspended in 100 mm^3 of HBSS (Hank’s Buffered Salt Solution) containing 140 mM NaCl, 5 mM KCl, 0.8 mM MgCl2, 1.8 mM CaCl2, 1 mM Na2HPO4, 10 mM HEPES (N- (2-hydroxyethyl) -piperazine-N′- (2-ethanesulfonic acid), and 1% glucose at pH 7.4. Then, 50 μL of XTT solution (in PBS) was added to a final concentration of […]. In addition, PMS (phenazine methosulphate) - methyl dibenzo-N-methylpyrazine sulphate (0.383 mg/cm^3) was used, which was combined with XTT solution at a ratio of 1:50. After 4 h of incubation with XTT, absorbance was measured at a wavelength λ = 450 nm and reference wavelength λ = 690 nm with a microplate reader (BioTek, Winooski, VT, USA).

HL-60 cells = experiment: XTT cytotoxicity assay, HL-60; format: cell-based; conditions: Homo sapiens, 48 h incubation, none in the picture
Protocol: as §1, §2

HMEC-1 cells = experiment: XTT cytotoxicity assay, HMEC-1 (normal dermal endothelium); format: cell-based; conditions: Homo sapiens, 48 h incubation, none in the picture
Protocol: as §1, §2

dCK in THP-1 cells = experiment: Deoxycytidine kinase activity, THP-1; format: cell-based, human; conditions: THP-1, 24 h incubation
Protocol: Deoxycytidine kinase activity was measured in accordance with the manufacturer’s protocol. The cells, at final concentration were plated at 1 × 10^6 cells per 24-well plates and cultured with the tested compounds for 24 h. Some cells were preincubated with an ATR kinase inhibitor (VE-821) for 1 h at 37 °C before adding the tested compounds. After drug treatment, the cells were washed with PBS and resuspended in an ice-cold cytosol extraction buffer containing 1 mM phenylmethylsulfonyl fluoride (PMSF) and a protease inhibitor cocktail. The cell lysate was centrifuged at 10,000 × g for 30 min at 4 °C. The protein concentration was determined using the Bradford method. The supernatant (cytosolic fraction) was collected and stored at −80 °C. The clarified cytoplasm extracts, dCK standards, and blank control were added to the appropriate microtiter plate wells with a biotin-conjugated polyclonal antibody prepared specifically for dCK. Avidin conjugated to horseradish peroxidase (HRP) was added to each microplate well and incubated. Then, a TMB substrate solution was added to the plate. […] The enzyme-substrate reaction was terminated by addition of a sulfuric acid solution. The color change was measured spectrophotometrically at a wavelength of 450 nm using a microplate reader (BioTek).

[1] = tested on: leukemic cells (HL-60, MOLT-4, THP-1); experiment: XTT cytotoxicity assay, leukemic cells overall; format: cell-based, human; conditions: XTT, leukemic cell lines
Protocol: as §1, §2

THP-1 cells = experiment: Comet assay with proteinase K post-treatment (DNA-protein cross-links), THP-1; format: cell-based, human
Protocol: Single cell gel electrophoresis (comet assay) was used to detect alkali labile sites, single and double DNA strand breaks, and cross-links induced by genotoxic agents. After electrophoresis and gel staining with 4,6-diamidino-2-phenylindole (DAPI), the released DNA was visible under a fluorescence microscope as a characteristic comet tail. The cells were plated on 24-well plates (20,000 cells/mL) and treated with CLA, CLA-FMOR, CLA-FPIP, or CLA-FPIR at the indicated concentrations for 2, 24, and 48 h at 37 °C. Some cells were preincubated with an ATR kinase inhibitor (VE-821) for 1 h at 37 °C before adding the tested compounds. Next, cells were collected into Eppendorf tubes and rinsed with PBS. Then, cells were suspended in 0.75% low melting point (LMP) agarose dissolved in PBS (pH 7.4) and placed on microscope slides precoated with 0.5% normal melting point (NMP) agarose. Subsequently, the slides were treated with a cooled lysis buffer (2.5 M NaCl, 100 mM EDTA, 10 mM Tris, 1% Triton X-100, pH 9.0) for 1–24 h at 4 °C. Then, slides were placed in developing buffer (300 mM NaOH, 1 mM EDTA) for 20 min. Electrophoresis was performed in […] (30 mM NaOH, 1 mM EDTA) at 29 V and 30 mA for 20 min. The samples were stained with DAPI ([…]). The slides were stored in a wet chamber at 4 °C and analyzed under a fluorescence microscope. Fifty randomly selected cells from each slide were measured using image analysis (Nikon, Japan) attached to a COHU 4910 video camera, which was equipped with a UV-1 filter block consisting of an excitation filter (359 nm) and a barrier filter (461 nm) connected to the image analysis system Lucia-Comet v. 4.51 (Czech Republic)[41]. In the samples preincubated with VE-821, the level of DNA damage associated with the ATR kinase was determined.
Because cross-links can be undetectable in the alkaline comet assay, a variant of this method including post-treatment with proteinase K (Cat no: P2308) was used. […]

SMILES | IC50 (MOLT-4 cells) [nM] | IC50 (HL-60 cells) [nM] | IC50 (HMEC-1 cells) [nM] | dCK activity (dCK in THP-1 cells) | cytotoxicity (in words) [1] | DNA damage in the tail after proteinase K (THP-1 cells; THP-1, 24 h) | cytotoxic potency compared with CLA (MOLT-4 cells; MOLT-4, XTT) | DNA damage in the tail after proteinase K (THP-1 cells; THP-1, 2–48 h)
OC[C@H]1O[C@@H](n2cnc3c(N=CN4CCCC4)nc(Cl)nc32)C[C@@H]1O [CLA-FPIR, [6-deamino-6-(N′, N′-l′, 4′-tetramethyleneformamidino)] cladribine] | 127 | 135 | 231 | highest dCK activity | high cytotoxic activity | increased |  | 
OC[C@H]1O[C@@H](n2cnc3c(N=CN4CCOCC4)nc(Cl)nc32)C[C@@H]1O [CLA-FMOR, [6-deamino-6-(N′, N′-3′-oxa-1′, 5′-pentamethyleneformamidine)] cladribine] | 73 | 122 | 287 | highest dCK activity | high cytotoxic activity |  | more potent than CLA | increased
